“Also recorded” adds a separate entry of the source. Where two headings read alike, the source gives them in different places.
Columns and labels:
[1] = molecular target: T1, Leucine Aminopeptidase (LAP), type III-CP (Sus scrofa, UniProt P28839); assay: Leucine aminopeptidase in vitro hydrolysis (TLC); assay type: biochemical; settings: 1 mg/ml AA-CHP, pH 9.0, up to 12 hours
T1 sequence (P28839 33-519): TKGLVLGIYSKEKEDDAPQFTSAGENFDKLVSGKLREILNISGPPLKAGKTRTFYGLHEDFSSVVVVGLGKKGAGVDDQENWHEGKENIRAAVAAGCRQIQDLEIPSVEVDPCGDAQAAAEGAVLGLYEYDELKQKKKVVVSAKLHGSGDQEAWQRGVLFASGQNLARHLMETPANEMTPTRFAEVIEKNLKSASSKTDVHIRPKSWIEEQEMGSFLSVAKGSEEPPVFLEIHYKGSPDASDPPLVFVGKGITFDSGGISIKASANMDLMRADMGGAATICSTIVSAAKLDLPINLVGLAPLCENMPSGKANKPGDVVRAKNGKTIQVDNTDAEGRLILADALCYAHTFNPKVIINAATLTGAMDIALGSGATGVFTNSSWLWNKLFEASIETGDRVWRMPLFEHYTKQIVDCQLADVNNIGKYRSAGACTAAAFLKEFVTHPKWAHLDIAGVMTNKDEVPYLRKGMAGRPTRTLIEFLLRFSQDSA
Experimental: Leucine Aminopeptidase (LAP), type III-CP (Sigma) was stored at 0°-4° C. in 0.75M saturated […], 0.1M Tris and 0.005M MgCl2 (pH 8) and contained 210 U/ml. Prior to the hydrolysis experiment, LAP (50λ) was activated by incubating it in 0.025M MnCl2 (0.2 ml), 0.5M Tris.HCl buffer (pH 9.0, 0.2 ml) and demineralized and ultra-filtered H2 O (0.6 ml) for at least 2 hours at 37° C. To each sample test tube was added AA-CHP (1.5 mg) in 0.02M Tris HCl buffer (pH 9.0, 0.5 ml) so that the final concentration was 1 mg/ml AA-CHP. […] They were dried and sprayed with 0.2% Ninhydrin in EtOH and the color was developed at 85° C. for 5 minutes. The in vitro hydrolysis of Leu-CHP by LAP was also concomitantly studied by scanning spectrophotometry at different times after the start of incubation with the enzyme. A blank reference cell containing only enzyme and buffer was used.

Female DBA/2J mice = assay: In vivo toxicity (LD50, survival, histology); set-up: key to Histologic Findings: Acute Renal Tubular Necrosis / Histologic Findings: Pulmonary Congestion and Edema: 0: absent; +: mild; ++: moderate; +++: severe; settings: for pulmonary congestion and edema (in words): Phe-CHP 600, Leu-CHP 1000, CHP-OEt 550 mg/kg
Experimental: (§1) Female DBA/2J mice, 8 weeks old, were injected intraperitoneally with test compound solutions (X, XI, XII, XIII, […]) to give a final concentration of 30 mg/ml.
(§2) In those groups receiving both test compound and cysteine, cysteine (1000 mg/kg) was given i.p. both 1 hour prior to and 2 or 3 hours after i.p. injection of the test compound. In Table 3 are the results of these experiments.

[2] = In vivo toxicity (LD50, survival, histology); set-up: species or system mice; key to Histologic Findings: Acute Renal Tubular Necrosis / Histologic Findings: Pulmonary Congestion and Edema: 0: absent; +: mild; ++: moderate; +++: severe; settings: mouse, in vivo, ip, mice; for NOAEL: read-out: non-toxic up to (dose)
Experimental: as §1, §2

mice = settings: for LD100: i.p., mice
Experimental: Cysteine hydrochloride was neutralized with 1N NaOH and diluted with PBS so that the final concentration was 30 mg/ml. In those groups that received only the test compounds, a single dose (up to 1000 mg/kg) was given i.p. and any toxic deaths were autopsied and hematoxylin and eosin sections obtained.

[3] = system: L1210 murine leukemia cells; assay: Inhibition of 3H-thymidine incorporation into DNA; assay type: cell-based
Source text: An L1210 murine leukemia cell line was maintained in mice (female DBA/2J strain from the Jackson Laboratory, Bar Harbor, Maine) by transferring every seven days via intraperitoneal (i.p.) injection of 10^5 cells. […] The frozen cells maintained their viability for over two years. For all in vitro and in vivo experiments only freshly harvested intraperitoneally grown L1210 cells were used.
A DBA/2J mouse bearing L1210 cells for 6 days after i.p. inoculation of 1×10^5 cells was sacrificed by cervical dislocation and, using sterile technique, the abdominal skin was incised and pinned back. Using two 10 ml syringes with 21 gauge needles, one being filled with cold phosphate buffer saline (PBS) (9 ml, pH 7.4) and in 3 ml increments, the solution was injected into the peritoneal cavity through one side and withdrawn with the other syringe through the other side. The light pink cell suspension was then centrifuged at 2000 rpm for 5 minutes and the supernatant was decanted. […] After 0, 2, 4, 5 or 6 hours preincubation, 3H-Thymidine (1 μl; 1 μC) was added and then the incubation was continued for another 1/2 hour. The cells were then killed and their proteins precipitated with 5% TCA. […] To each vial was then added more PPO/POPOP/Toluene cocktail (1.5 ml) and the samples were counted. […]

[4] = system: Leucine Aminopeptidase (LAP); assay: Hydrolysis of Leu-CHP by LAP studied by absorption spectrophotometry; assay type: biochemical; settings: pH 8.5, FIG. 7
Experimental: Leucine Aminopeptidase (LAP), type III-CP (Sigma) was stored at 0°-4° C. in 0.75M saturated […], 0.1M Tris and 0.005M MgCl2 (pH 8) and contained 210 U/ml. Prior to the hydrolysis experiment, LAP (50λ) was activated by incubating it in 0.025M MnCl2 (0.2 ml), 0.5M Tris.HCl buffer (pH 9.0, 0.2 ml) and demineralized and ultra-filtered H2 O (0.6 ml) for at least 2 hours at 37° C. To each sample test tube was added AA-CHP (1.5 mg) in 0.02M Tris HCl buffer (pH 9.0, 0.5 ml) so that the final concentration was 1 mg/ml AA-CHP. The hydrolysis reaction was allowed to proceed for up to 12 hours and then TLC's were performed by spotting the reaction solution (2-3 μl) on cellulose plates and developing them in Butanol (20 ml)/HAc(4ml)/Pyridine(13.3 ml)/H2 O (16 ml) solvent system. […]
In order to characterize the products of hydrolysis of AA-CHP's, the hydrolysis of Leu-CHP by LAP was studied by absorption spectrophotometry. […] However, by 22 minutes (not shown) the absorbance at 300 and 400 nm had diminished in intensity while the 350 maximum continued to increase, albeit at a slower rate. At pH 7.0 (FIG. 8B), the absorbance at 300 nm continued to slowly increase in intensity even up to 90 minutes after dissolving CHP-OEt (0.2 mg) in DMSO (0.02 ml) into 0.05M Phosphate buffer (3 ml). […]

[5] = Spectral study of rearrangement/reactions with nucleophiles, reducing and oxidizing agents; assay type: physicochemical
Experimental: In order to characterize the products of hydrolysis of AA-CHP's, the hydrolysis of Leu-CHP by LAP was studied by absorption spectrophotometry. […] This was also true for the new maximum at 350 nm and for a second new "maximum" which appeared as a low, broad "peak" merging with 350 peak and centered at about 400 nm. However, by 22 minutes (not shown) the absorbance at 300 and 400 nm had diminished in intensity while the 350 maximum continued to increase, albeit at a slower rate. At pH 7.0 (FIG. 8B), the absorbance at 300 nm continued to slowly increase in intensity even up to 90 minutes after dissolving CHP-OEt (0.2 mg) in DMSO (0.02 ml) into 0.05M Phosphate buffer (3 ml). Furthermore, a second maximum at 350 nm developed but it remaind smaller in intensity than the 300 nm peak.
Table 2 summarizes the results of several separate experiments involving the reactions of CHP-OEt, CHA-OEt, pIQ-OEt and pBQ (0.5-1.0 mM) with various nucleophiles (lysine, 3-MPA) reducing agents (NaBH4, 3-MPA) and oxidizing agents (NaIO4, O2) in ten-fold molar excess in Tris-HCl buffer (0.05M, pH 9.0).
In these studies, CHP-OEt, CHA-OEt and pBQ* were all pure compounds, thus, their absorption could be unequivocably assigned, pIQ-OEt was generated by the autoxidation of CHA-OEt in solution and its presence was noted by the appearance of one absorbance maximum at 400 nm and the development of a distinct yellow color to a previously clear solution of CHA-OEt. […] On the other hand, there was a dissimilarity between the spectra of CHP-OEt and CHA-OEt. CHA-OEt was oxidized by O2 or NaIO4 to the pIQ-OEt with a λmax =400 nm whereas NaIO4 had no effect on the rate or nature of spectral change that occurred when . . .

[6] = Stability in aqueous media; assay type: physicochemical
[7] = Leu-CHP 1000 mg/kg i.p. with cysteine
[8] = no cysteine, Leu-CHP 1000 mg/kg, Phe-CHP 600 mg/kg i.p.
[9] = compound added: 3-MPA, pH 8-9, ten-fold excess
[10] = compound added: Lysine, pH 8-9, ten-fold excess

## NCCCC[C@H](N)C(=O)NN(CC(=O)O)c1ccc(O)cc1 [Lys-CHP]
[1]
  cleavage/hydrolysis by LAP: not
Female DBA/2J mice; 600 mg/kg i.p.
  survivors/total: 5/5
Female DBA/2J mice; 1000 mg/kg i.p.
  survivors/total: 6/6
[2]
  LD50: > 1000 mg/kg
  NOAEL: ≥ 1000 mg/kg

## C[C@H](N)C(=O)NN(CC(=O)O)c1ccc(O)cc1 [Ala-CHP]
[1]
  cleavage/hydrolysis by LAP: able to cleave
Female DBA/2J mice; 600 mg/kg i.p.
  survivors/total: 5/5
Female DBA/2J mice; 1000 mg/kg i.p.
  survivors/total: 6/6
[2]
  LD50: > 1000 mg/kg
  NOAEL: ≥ 1000 mg/kg

## CC(C)C[C@H](N)C(=O)NN(CC(=O)O)c1ccc(O)cc1 [Leu-CHP, βN-(L-leucyl)-αN-(carboxymethyl)-p-hydroxy-phenylhydrazine]
mice; 1000 mg/kg i.p., no cysteine
  deaths/total: Nine of nine
mice; 1000 mg/kg i.p., no cysteine, listed as Leu--CHP
  deaths/total: 9/9
mice; [7]
  Time of Death: 72 h
  pulmonary congestion or edema, histology of mouse that died on Day 3: no evidence of pulmonary congestion or edema
mice; Leu-CHP 1000 mg/kg i.p. with cysteine 1000 mg/kg before and after
  deaths/total: one of three
mice; Leu-CHP 1000 mg/kg i.p. with cysteine 1000 mg/kg before and after, listed as Leu--CHP
  deaths/total: 1/3
mice
  LD100: 1000 mg/kg
mice; [8]
  Time of Death: ≤ 8 h
mice; no cysteine, Leu-CHP 1000 mg/kg, Phe-CHP 600 mg/kg i.p., listed as Leu--CHP
  Time of Death: < 8 h
[3]; no pre-incubation (simultaneous exposure), FIG. 12
  inhibition of 3H-thymidine incorporation into DNA: no inhibition
[3]; with pre-incubation
  inhibition of 3H-thymidine incorporation / DNA synthesis (in words): degree of inhibition of ^3 H-thymidine incorporation also increased
[1]
  cleavage/hydrolysis by LAP: able to cleave; also recorded: demonstrated
Female DBA/2J mice; 600 mg/kg i.p.
  survivors/total: 5/5
Female DBA/2J mice; 750 mg/kg i.p.
  survivors/total: 3/3
Female DBA/2J mice; 1000 mg/kg i.p.
  survivors/total: 0/9
Female DBA/2J mice; i.p., mice
  acute renal tubular necrosis (in words): early signs of ATN
  microscopic examination of the heart: no evidence of a toxic insult
Female DBA/2J mice; i.p.
  pulmonary congestion and edema (in words): moderate to severe
[2]
  LD50: 750 to 1000 mg/kg
[4]
  new, more intense absorption maximum appearing during hydrolysis: 350 nm
  original absorption maximum (disappeared during hydrolysis): 300 nm

## CCOC(=O)CN(N)c1ccc(O)cc1 [CHP-OEt, α-N-(carboxymethyl ethyl ester)-p-hydroxyphenylhydrazine]
[5]; 0.01M Tris buffer pH 9.0, FIG. 8A
  absorption maximum: 300 nm
[5]; 0.05M Phosphate buffer pH 7.0, FIG. 8B
  second absorption maximum: 350 nm
[5]; [9]
  Final Maximum (nm): 300 nm
[5]; [10]
  Final Maximum (nm): 350 nm
[5]; compound added: NaBH4, pH 8-9
  Final Maximum (nm), appears after NaBH4 has decomposed: 350 nm
[5]; compound added: NaBH4, pH 8-9, ten-fold excess
  Final Maximum (nm): 300 nm
[5]; compound added: NaIO4, pH 8-9, ten-fold excess
  Final Maximum (nm): 350 nm
[5]; compound added: none, pH 8-9
  Final Maximum (nm): 350 nm
[5]; pH 8-9
  Initial Maximum (nm): 300 nm
[6]
  stability in aqueous media: obvious instability
[6]; listed as IVa
  stability in aqueous media: decomposes rapidly
Female DBA/2J mice; 400 mg/kg i.p.
  survivors/total: 3/3
Female DBA/2J mice; 550 mg/kg i.p. in 7% DMSO
  deaths/total: four of four
  survivors/total: 0/4
  time of death after treatment: ≤ 8 h
Female DBA/2J mice; i.p., mice
  Histologic Findings: Acute Renal Tubular Necrosis: 0
  Histologic Findings: Pulmonary Congestion and Edema: +++
  microscopic examination of the heart: no evidence of a toxic insult
Female DBA/2J mice; i.p.
  pulmonary congestion and edema (in words): moderate to severe
[2]
  LD50: 400 to 550 mg/kg

## N[C@@H](CCC(=O)O)C(=O)NN(CC(=O)O)c1ccc(O)cc1 [Glu-CHP]
[1]
  cleavage/hydrolysis by LAP: not
Female DBA/2J mice; 600 mg/kg i.p.
  survivors/total: 5/5
Female DBA/2J mice; 1000 mg/kg i.p.
  survivors/total: 6/6
[2]
  LD50: > 1000 mg/kg
  NOAEL: ≥ 1000 mg/kg

## CCOC(=O)CNc1ccc(O)cc1 [CHA-OEt, N(p-hydroxyphenyl)glycine ethyl ester, reference compound]
[5]; [9]
  Final Maximum (nm): 300 nm
[5]; pH 8-9
  Initial Maximum (nm): 300 nm

## CC(C)C[C@H](NC(=O)OC(C)(C)C)C(=O)NN(CC(=O)O)c1ccc(O)cc1 [Boc-Leu-CHP]
[1]
  cleavage/hydrolysis by LAP: not

## N[C@@H](Cc1ccccc1)C(=O)NN(CC(=O)O)c1ccc(O)cc1 [Phe-CHP]
mice; 600 mg/kg i.p., no cysteine
  deaths/total: 6 of 7
mice; 600 mg/kg i.p., no cysteine, listed as Phe--CHP
  deaths/total: 6/7
mice; Phe-CHP 600 mg/kg i.p. with cysteine 1000 mg/kg before and after
  deaths/total: none
mice; Phe-CHP 600 mg/kg i.p. with cysteine 1000 mg/kg before and after, listed as Phe--CHP
  deaths/total: 0/3
mice
  LD100: 600 mg/kg
mice; [8]
  Time of Death: 36 to 44 h
[1]
  cleavage/hydrolysis by LAP: able to cleave
Female DBA/2J mice; 400 mg/kg i.p.
  survivors/total: 3/5
Female DBA/2J mice; 600 mg/kg i.p.
  survivors/total: 1/7
Female DBA/2J mice; i.p., mice
  Histologic Findings: Acute Renal Tubular Necrosis: +++
  acute renal tubular necrosis (in words): severe acute renal tubular coagulative necrosis
  relative toxicity: most toxic
Female DBA/2J mice; i.p.
  pulmonary congestion and edema (in words): minimal
[2]
  LD50: 400 mg/kg

## CCOC(=O)CN(NC(=O)[C@@H](N)CC(C)C)c1ccc(O)cc1 [Leu-CHP-OEt, β-N-(L-leucyl)-α-N-(carboxymethyl ethyl ester)-p-hydroxyphenylhydrazine]
[1]
  cleavage/hydrolysis by LAP: able to cleave

## CCOC(=O)CN=C1C=CC(=O)C=C1 [pIQ-OEt, reference compound]
[5]; [10]
  Final Maximum (nm): 300 nm
[5]; oxidation by O2 or NaIO4
  λmax of pIQ-OEt formed by oxidation of CHA-OEt: 400 nm

Source: patent publication US4459227A, “Para-hydroxyphenylhydrazines as in situ precursors of iminoquinones and quinones” (Duke University, priority 1981, dated 1984)
